The source of these data is PMC9050769 (European Journal of Drug Metabolism and Pharmacokinetics, 2022).

Data set [1] in a line: Observed tramadol and ODT blood concentrations. The data set is classed as in vivo, human.
In data set [2] the test system is mu (µ) opioid receptor. The note with it: higher than that of tramadol; cited from earlier work.
The conditions of data set [3]: more potent than tramadol; cited from earlier work.
The conditions of data set [4]: cited from earlier work.
[5] abbreviates: before inclusion of CrCL covariate (base model).
Setting [6] is: final model (with CrCL covariate).

Where two headings read alike, the source gives them in different places.

Take `CN(C)C[C@H]1CCCC[C@]1(O)c1cccc(O)c1` [O-desmethyltramadol]: the ODT concentration entry in data set [1] (patients received 100 mg of tramadol) is “around 100 µg/l”. For the same compound, the “ODT/tramadol concentration ratio at steady state, range” value in data set [1] (trough samples, n = 17) was 0.08–0.82. Further, in data set [2], the “binding affinity to the mu (µ) opioid receptor relative to tramadol” value is on record as 300 fold. For the same compound, the “potency relative to tramadol” value in data set [3] is on record as 100 times. Moreover, where the note is “final model”, the “BSV in CLm” value is on record as 21.6% and the “CLm/F, clearance of O-desmethyltramadol” value worked out at 0.143 L/h.

For `CNC(C)C1CCC(N)C(OC2C(N)CC(N)C(OC3OCC(C)(O)C(NC)C3O)C2O)O1` (stereo not drawn) [gentamicin], in data set [4], the “clearance in frail older patients compared to fit older patients” value is given as “reduced”.

Consider `COc1cccc(C2(O)CCCCC2CN(C)C)c1` (stereo not drawn) [tramadol], for which, under setting [5], the “BSV in CL/F” value was determined as 78.9% and the “BSV in V2/F” value was determined as 148%. Further, the “BSV in Q” value (before inclusion of ISAR covariate (base model)) is given as 4.71%. In addition, for the setting “final model”, the “BSV in V1/F” value came to 73.8%; the BSV in kt is 78.5%; the “Q, inter-compartmental clearance” value was determined as 0.0426 L/h; the “V2/F, apparent volume of distribution in peripheral compartment” value amounted to 0.379 L. Besides, the “between-subject variability (BSV) in absorption rate constant” value (final model) was found to be 37.8%. Under setting [6], the “BSV in CL/F” value was 6.61% and the “BSV in V2/F” value amounted to 97.4%. Moreover, the “BSV in Q” value (final model (with ISAR covariate)) is listed as 2.19%.
